Source: PubChem BioAssay AID256 (DTP/NCI, 2004)
Several values for one entry are separate records, joined by “and”; a condition that tells them apart may be missing. Equal entries are not always repeated. Inconclusive results and toxic doses are left out. Non-standard residues stand in square brackets, D forms with d. Residues, ends and D or L forms follow the SMILES beside them. ξ: configuration not given here. *: point of attachment. Bz = O=C(c1ccccc1)*; Bn = c1ccc(C*)cc1; ξC = NC(CS)C(=O)O

Test system: CD2F1 mice, L1210 leukemia ip, survival T/C
Experiment: NCI In Vivo Anticancer Drug Screen. Data for tumor model L1210 Leukemia (intraperitoneal) in CD2F1 (CDF1) mice
Conditions: higher = longer survival
Procedure, shortened: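 Compound-dosed mice with transplantable tumor versus matched vehicle controls; endpoint ratio T/C reported.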

With `COc1cc(NS(C)(=O)=O)ccc1Nc1c2ccccc2nc2ccccc12` the T/C (endpoint: mean survival time, dose: 1.0 mg/kg/injection, schedule: Q01DX009 (ip), vehicle: saline) was 110 % of control, the T/C (endpoint: mean survival time, dose: 1.0 mg/kg/injection, schedule: Q01DX009 (sc), vehicle: saline) was 101 % of control and the T/C (endpoint: mean survival time, dose: 1.8 mg/kg/injection, schedule: Q01DX009 (ip), vehicle: other) was 185 % of control. The T/C (endpoint: mean survival time, dose: 2.0 mg/kg/injection, schedule: Q01DX009 (sc), vehicle: saline) was 104 % of control, the T/C (endpoint: mean survival time, dose: 2.0 mg/kg/injection, schedule: Q03HX008 (ip), vehicle: saline) was 150 % of control and the T/C (endpoint: mean survival time, dose: 2.0 mg/kg/injection, schedule: Q03HX024 (ip), vehicle: saline) was 151 % of control. For the same compound, the T/C (endpoint: mean survival time, dose: 3.75 mg/kg/injection, schedule: Q01DX009 (ip), vehicle: other) was 173 % of control and 174 % of control, the T/C (endpoint: mean survival time, dose: 3.75 mg/kg/injection, schedule: Q04DX003 (ip), vehicle: other) was 98 % of control and the T/C (endpoint: mean survival time, dose: 4.0 mg/kg/injection, schedule: Q01DX009 (ip), vehicle: saline) was 155 % of control and 218 % of control and 161 % of control. For the same compound, the T/C (endpoint: mean survival time, dose: 4.0 mg/kg/injection, schedule: Q01DX009 (oral), vehicle: saline) was 102 % of control, the T/C (endpoint: mean survival time, dose: 4.0 mg/kg/injection, schedule: Q01DX009 (sc), vehicle: saline) was 113 % of control and the T/C (endpoint: mean survival time, dose: 4.0 mg/kg/injection, schedule: Q03HX008 (ip), vehicle: saline) was 164 % of control. The T/C (endpoint: mean survival time, dose: 4.0 mg/kg/injection, schedule: Q03HX016 (ip), vehicle: saline) was 346 % of control, the T/C (endpoint: mean survival time, dose: 4.0 mg/kg/injection, schedule: Q03HX024 (ip), vehicle: saline) was 122 % of control and the T/C (endpoint: mean survival time, dose: 7.5 mg/kg/injection, schedule: Q01DX009 (ip), vehicle: other) was 91 % of control and 93 % of control. For the same compound, the T/C (endpoint: mean survival time, dose: 7.5 mg/kg/injection, schedule: Q04DX003 (ip), vehicle: other) was 150 % of control, the T/C (endpoint: mean survival time, dose: 8.0 mg/kg/injection, schedule: Q01DX009 (oral), vehicle: saline) was 113 % of control and the T/C (endpoint: mean survival time, dose: 8.0 mg/kg/injection, schedule: Q03HX008 (ip), vehicle: saline) was 86 % of control. The T/C (endpoint: mean survival time, dose: 8.0 mg/kg/injection, schedule: Q03HX016 (ip), vehicle: saline) was 93 % of control, the T/C (endpoint: mean survival time, dose: 15.0 mg/kg/injection, schedule: Q01DX001 (ip), vehicle: other) was 154 % of control and the T/C (endpoint: mean survival time, dose: 15.0 mg/kg/injection, schedule: Q04DX003 (ip), vehicle: other) was 124 % of control and 221 % of control. For the same compound, the T/C (endpoint: mean survival time, dose: 16.0 mg/kg/injection, schedule: Q01DX001 (sc), vehicle: saline) was 112 % of control, the T/C (endpoint: mean survival time, dose: 16.0 mg/kg/injection, schedule: Q01DX009 (oral), vehicle: saline) was 102 % of control and the T/C (endpoint: mean survival time, dose: 16.0 mg/kg/injection, schedule: Q01DX009 (sc), vehicle: saline) was 101 % of control. For the same compound, the T/C (endpoint: mean survival time, dose: 16.0 mg/kg/injection, schedule: Q04DX003 (ip), vehicle: saline) was 150 % of control, the T/C (endpoint: mean survival time, dose: 32.0 mg/kg/injection, schedule: Q01DX001 (sc), vehicle: saline) was 117 % of control and the T/C (endpoint: mean survival time, dose: 32.0 mg/kg/injection, schedule: Q01DX009 (oral), vehicle: saline) was 93 % of control. For the same compound, the T/C (endpoint: mean survival time, dose: 32.0 mg/kg/injection, schedule: Q04DX003 (ip), vehicle: saline) was 153 % of control, the T/C (endpoint: mean survival time, dose: 64.0 mg/kg/injection, schedule: Q01DX001 (oral), vehicle: saline) was 109 % of control and the T/C (endpoint: mean survival time, dose: 64.0 mg/kg/injection, schedule: Q01DX001 (sc), vehicle: saline) was 119 % of control. The T/C (endpoint: mean survival time, dose: 64.0 mg/kg/injection, schedule: Q08DX002 (ip), vehicle: saline) was 154 % of control, the T/C (endpoint: mean survival time, dose: 128.0 mg/kg/injection, schedule: Q01DX001 (ip), vehicle: saline) was 92 % of control and the T/C (endpoint: mean survival time, dose: 128.0 mg/kg/injection, schedule: Q01DX001 (oral), vehicle: saline) was 114 % of control. For the same compound, the T/C (endpoint: mean survival time, dose: 128.0 mg/kg/injection, schedule: Q01DX001 (sc), vehicle: saline) was 117 % of control, the T/C (endpoint: mean survival time, dose: 256.0 mg/kg/injection, schedule: Q01DX001 (oral), vehicle: saline) was 104 % of control and the T/C (endpoint: mean survival time, dose: 256.0 mg/kg/injection, schedule: Q01DX001 (sc), vehicle: saline) was 118 % of control. For the same compound, the T/C (endpoint: mean survival time, dose: 512.0 mg/kg/injection, schedule: Q01DX001 (oral), vehicle: saline) was 112 % of control, the T/C (endpoint: median survival time, dose: 0.25 mg/kg/injection, schedule: Q01DX009 (sc), vehicle: other) was 112 % of control and the T/C (endpoint: median survival time, dose: 0.25 mg/kg/injection, schedule: Q03HX016 (ip), vehicle: other) was 118 % of control. The T/C (endpoint: median survival time, dose: 0.5 mg/kg/injection, schedule: Q01DX009 (sc), vehicle: other) was 112 % of control, the T/C (endpoint: median survival time, dose: 1.0 mg/kg/injection, schedule: Q01DX009 (ip), vehicle: saline with Tween-80) was 165 % of control and the T/C (endpoint: median survival time, dose: 1.0 mg/kg/injection, schedule: Q01DX009 (oral), vehicle: other) was 100 % of control. The T/C (endpoint: median survival time, dose: 1.0 mg/kg/injection, schedule: Q01DX009 (sc), vehicle: other) was 112 % of control, the T/C (endpoint: median survival time, dose: 1.0 mg/kg/injection, schedule: Q03HX008 (ip), vehicle: other) was 162 % of control and the T/C (endpoint: median survival time, dose: 1.0 mg/kg/injection, schedule: Q03HX016 (ip), vehicle: other) was 150 % of control. The T/C (endpoint: median survival time, dose: 1.0 mg/kg/injection, schedule: Q03HX024 (ip), vehicle: other) was 175 % of control, the T/C (endpoint: median survival time, dose: 2.0 mg/kg/injection, schedule: Q01DX001 (ip), vehicle: other) was 118 % of control and the T/C (endpoint: median survival time, dose: 2.0 mg/kg/injection, schedule: Q01DX001 (sc), vehicle: other) was 112 % of control. The T/C (endpoint: median survival time, dose: 2.0 mg/kg/injection, schedule: Q01DX009 (ip), vehicle: other) was 150 % of control and 161 % of control, the T/C (endpoint: median survival time, dose: 2.0 mg/kg/injection, schedule: Q01DX009 (oral), vehicle: other) was 100 % of control and the T/C (endpoint: median survival time, dose: 2.0 mg/kg/injection, schedule: Q03HX008 (ip), vehicle: other) was 181 % of control. For the same compound, the T/C (endpoint: median survival time, dose: 2.0 mg/kg/injection, schedule: Q03HX016 (ip), vehicle: other) was 181 % of control, the T/C (endpoint: median survival time, dose: 2.0 mg/kg/injection, schedule: Q04DX003 (ip), vehicle: other) was 120 % of control and the T/C (endpoint: median survival time, dose: 2.59 mg/kg/injection, schedule: Q04DX003 (ip), vehicle: other) was 124 % of control. For the same compound, the T/C (endpoint: median survival time, dose: 4.0 mg/kg/injection, schedule: Q01DX001 (sc), vehicle: other) was 112 % of control, the T/C (endpoint: median survival time, dose: 4.0 mg/kg/injection, schedule: Q01DX009 (ip), vehicle: other) was 193 % of control and 200 % of control and the T/C (endpoint: median survival time, dose: 4.0 mg/kg/injection, schedule: Q01DX009 (ip), vehicle: saline with Tween-80) was 151 % of control (2×) and 163 % of control. For the same compound, the T/C (endpoint: median survival time, dose: 4.0 mg/kg/injection, schedule: Q01DX009 (oral), vehicle: other) was 112 % of control, the T/C (endpoint: median survival time, dose: 4.0 mg/kg/injection, schedule: Q01DX009 (sc), vehicle: other) was 150 % of control and the T/C (endpoint: median survival time, dose: 8.0 mg/kg/injection, schedule: Q01DX001 (oral), vehicle: other) was 112 % of control. For the same compound, the T/C (endpoint: median survival time, dose: 8.0 mg/kg/injection, schedule: Q01DX001 (sc), vehicle: other) was 112 % of control, the T/C (endpoint: median survival time, dose: 8.0 mg/kg/injection, schedule: Q01DX009 (ip), vehicle: other) was 87 % of control and 88 % of control and the T/C (endpoint: median survival time, dose: 8.0 mg/kg/injection, schedule: Q01DX009 (oral), vehicle: other) was 150 % of control. For the same compound, the T/C (endpoint: median survival time, dose: 8.0 mg/kg/injection, schedule: Q01DX009 (sc), vehicle: other) was 112 % of control, the T/C (endpoint: median survival time, dose: 8.0 mg/kg/injection, schedule: Q04DX003 (ip), vehicle: other) was 181 % of control and the T/C (endpoint: median survival time, dose: 8.0 mg/kg/injection, schedule: Q08DX002 (ip), vehicle: other) was 156 % of control. For the same compound, the T/C (endpoint: median survival time, dose: 12.0 mg/kg/injection, schedule: Q04DX003 (ip), vehicle: other) was 186 % of control, the T/C (endpoint: median survival time, dose: 16.0 mg/kg/injection, schedule: Q01DX009 (ip), vehicle: other) was 90 % of control and the T/C (endpoint: median survival time, dose: 16.0 mg/kg/injection, schedule: Q01DX009 (oral), vehicle: other) was 87 % of control. The T/C (endpoint: median survival time, dose: 16.0 mg/kg/injection, schedule: Q01DX009 (sc), vehicle: other) was 87 % of control, the T/C (endpoint: median survival time, dose: 16.0 mg/kg/injection, schedule: Q04DX003 (ip), vehicle: other) was 150 % of control and 175 % of control and the T/C (endpoint: median survival time, dose: 16.0 mg/kg/injection, schedule: Q08DX002 (ip), vehicle: other) was 175 % of control. For the same compound, the T/C (endpoint: median survival time, dose: 20.0 mg/kg/injection, schedule: Q04DX003 (ip), vehicle: other) was 98 % of control, the T/C (endpoint: median survival time, dose: 32.0 mg/kg/injection, schedule: Q04DX003 (ip), vehicle: other) was 106 % of control and the T/C (endpoint: median survival time, dose: 64.0 mg/kg/injection, schedule: Q01DX001 (oral), vehicle: other) was 150 % of control. For the same compound, the T/C (endpoint: median survival time, dose: 64.0 mg/kg/injection, schedule: Q01DX001 (sc), vehicle: other) was 156 % of control and the T/C (endpoint: median survival time, dose: 128.0 mg/kg/injection, schedule: Q01DX001 (sc), vehicle: other) was 118 % of control.
For `COC(=O)C(CSCc1ccccc1)NC(=O)CNC(=O)c1ccccc1` (stereo not drawn) (Bz-Gly-[ξC](Bn)-OMe), the T/C (endpoint: mean survival time, dose: 100.0 mg/kg/injection, schedule: Q01DX001 (ip), vehicle: saline with Tween-80) was 98 % of control, the T/C (endpoint: mean survival time, dose: 100.0 mg/kg/injection, schedule: Q01DX009 (ip), vehicle: saline with Tween-80) was 91 % of control and the T/C (endpoint: mean survival time, dose: 200.0 mg/kg/injection, schedule: Q01DX001 (ip), vehicle: saline with Tween-80) was 93 % of control. For the same compound, the T/C (endpoint: mean survival time, dose: 200.0 mg/kg/injection, schedule: Q01DX009 (ip), vehicle: saline with Tween-80) was 94 % of control, the T/C (endpoint: mean survival time, dose: 400.0 mg/kg/injection, schedule: Q01DX001 (ip), vehicle: saline with Tween-80) was 97 % of control and the T/C (endpoint: mean survival time, dose: 400.0 mg/kg/injection, schedule: Q01DX009 (ip), vehicle: saline with Tween-80) was 91 % of control.
